{
  "source": "patent US20240350647A1",
  "about": "“STING SENSITIZING AGENTS” (STipe Therapeutics ApS, priority 2023, published 2024)",
  "key": {"IFN-β": {"test_system": "IFN-β", "assay": "Stimulation and sensitization assay in THP1 cells, IFN-β release (ELISA)", "type": "cell-based, human", "conditions": "with 2 μM Agent 1", "procedure": "THP1 cells were purchased from ATCC (TIB-202™) and cultured in RPMI 1640 supplemented with 10% FBS and 1% Penicillin/Streptomycin (P/S) at 37° C. and 5% CO2. Passaging of THP1 cells was kept below 20 passages.\nADU-S100 was dissolved according to manufacturer's protocol (tlrl-nacda2r) to 0.5 mg/mL in LAL and subsequently diluted in R10. diABZI Compound 3 was diluted from a 1 mM stock in 100% DMSO into R10. Agent 1 was dissolved to a stock solution of 1250 μM in 50% DMSO, 25 mM HEPES. Concentration of dissolved Agent 1 was determined by A280 measurement using Synergy HI (Biotek Gen5 SW). Subsequently, Agent 1 dilutions were prepared in RPMI 1640, 10% FBS, 1% P/S (R10).\nConcentrations of CXCL10 and IFN-β in the collected supernatants were determined by Duo-Set ELISA from R&D. Absorbance measurements at 450/570 nm and quantification were done using Synergy HI plate reader (Biotek Gen5 SW), Microsoft Excel and GraphPad prism v. 9.3.1.\nData analysis and statistical analysis were done using GraphPad prism 9.3.1. […]\nDip: is the plateau in the middle of the curve, corresponding to EMax, same unite as y-axis. The EMax determined here are not derived from this regression, due to the limitations using bell shaped dose response. Instead, EMax-values were determined as the maximum response at any given STING agonist concentration for both IFN-β and CXCL10 from all experiments. […]"}, "FIG. 9": {"assay": "FIG. 9", "procedure": "Table printed on a drawing sheet, FIG. 9\nThe patent's description of the figure: FIG. 9. In vitro metabolic stability in blood.\nFirst reader's note: Each column is one agent and each row gives its half-life in blood of one species at 37 °C; the test concentration is printed in the row label, or in the cells for human."}, "CD4+ T cells": {"test_system": "CD4+ T cells", "assay": "Dendritic Cell-T cell (DC-T) proliferation assay (ProImmune)", "conditions": "22 donors; Percentage Stimulation above Background ≥0.5%, SEM=2; peptides 0.34 μM", "from_the_text": "A panel of peripheral blood mononuclear cell (PBMC) samples from healthy human donors was selected from the ProImmune Ltd (UK) cell bank. Each PBMC sample was HLA (Human Leukocyte Antigen)-typed and stored in liquid nitrogen (vapor-phase) prior to use. The panel was selected so that HLA class II alleles known to be highly expressed in the global population were well represented (data not shown). Donors were predominantly selected by DRB1 allele expression.\nA Dendritic Cell-T cell (DC-T) proliferation assay (ProImmune Ltd) was used to identify the presence or potential T cell epitopes within the peptides. Adherent donor PBMCs were cultured with appropriate growth factors to generate monocyte-derived DCs. DCs were then loaded with a control (control 1 and control 2), the peptide (Agent 1, Agent 2, and Agent 3, see FIG. 8A) or left untreated. The peptides were loaded at a final concentration of 0.34 μM.\nMature antigen-loaded DCs were then co-cultured at a fixed ratio with autologous CFSE-labelled T cells in multi-well plates. Each test condition was set up in eight replicate wells and cells were incubated for 7 days. At the end of the incubation period, cell samples were stained with anti-CD4 antibody, then washed and fixed for by flow cytometric analysis. Proliferation was determined by measuring a decrease in CFSE intensity.\nData were compiled to determine antigen-induced proliferation per individual donor, calculated as Percentage Stimulation above Background. The frequency of positive donor cell responses (Percentage Antigenicity) was calculated as the proportion of responding donors out of total donors. Values were then standardized against the strength of response (an average of the Percentage Stimulation value obtained across accepted donors for each protein) to give a response index (RI).\nData obtained by flow cytometric evaluation of cell samples was analyzed using FlowJo Software (Tree Star, Inc.). The number of CFSE-dim (i.e., proliferating) cells was determined for each sample in eight replicate wells. Counts for the CD4^+ CFSE dim population in each sample were expressed as a proportion of the total CD4^+ population. The eight replicate values were then used to calculate Percentage Stimulation above Background (proportion of CD4^+ CFSE dim cells with antigen stimulation minus the proportion of CD4^+ CFSE dim cells without antigen stimulation).\nBackground threshold values are based on data from unstimulated cells for which a maximum acceptable resting proliferation threshold is established.\nIn evaluating antigenicity, it is also appropriate to take account of the frequency of donor cell responses across the study cohort. A positive response (Percentage Stimulation above Background ≥0.5%) in 2 or more independent donor samples is considered indicative of a potential T cell epitope.\nDepending on the size of the study, (20, 40 or 50 donors), two responding donors sets a threshold of 10%, 5% or 4% respectively. Thus, following calculation of Percentage Stimulation above Background, the frequency of positive donor cell responses (Percentage Antigenicity) is expressed as the proportion of responding donors out of total accepted donors screened.\nWhen calculating the antigenicity of a protein it is important to consider the strength of a response as well as the frequency of that response. This is because some binding responses may be pan-allele, but these responses may not be very strong. The strength of positive donor cell responses was determined by taking an average of the percentage stimulation value obtained across accepted donors for each protein. Determining a Response Index (RI) through the multiplication of strength and frequency values is more representative of the level of antigenicity."}, "FIG. 10A": {"assay": "FIG. 10A", "procedure": "Table printed on a drawing sheet, FIG. 10A\n(§1) The patent's description of the figure: FIGS. 10A-10C. Pharmacokinetic profile and parameter for peptides after intravenous administration. FIG. 10A) Mouse PK data (10 mg/kg, bolus IV, n=3 per timepoint). FIG. 10B) Rat PK data (10 mg/kg, bolus IV, n=3 per timepoint). FIG. 10C) Non-human primate (NHP) PK data (4 mg/kg, 30 min IV infusion, n=3). Error bars represent the standard deviation (SD).\nFirst reader's note: Mouse PK parameters; the legend of the plot on the same sheet gives 10 mg/kg (IV) for both agents."}, "FIG. 10C": {"assay": "FIG. 10C", "procedure": "Table printed on a drawing sheet, FIG. 10C\nas §1\nFirst reader's note: The species NHP stands in the head column of row 2, and the plot legend on the same sheet gives the dosing as 4 mg/kg (30-min IV) for both agents."}, "FIG. 10B": {"assay": "FIG. 10B", "procedure": "Table printed on a drawing sheet, FIG. 10B\nas §1\nFirst reader's note: Rat PK parameters; the plot legend on the same sheet gives 10 mg/kg (IV) for both agents, and the top-left cell 'PK parameters / rat' spans the first two rows."}},
  "note": "Where a SMILES comes first, the peptide text is derived from it. Bridges are numbered along the chain shown (N, C = ends). Where no end group is shown, it is not given here. [ ]: non-standard residue; d: D form. The star is where a group is joined. C16 diacid = O=C(O)CCCCCCCCCCCCCCC(=O)*; AEEA = NCCOCCOCC(=O)O",
  "data": [
    {"molecule": "Nc1nc2c(ncn2[C@@H]2O[C@@H]3COP(=O)(O)O[C@H]4[C@@H](O)[C@H](n5cnc6c(N)ncnc65)O[C@@H]4COP(=O)(O)O[C@@H]2[C@@H]3O)c(=O)[nH]1", "note": "[2′3′-cGAMP, cyclic 2′3′ GMP-AMP]", "values": [
      {"measurement": "EC50 of cGAMP for IFN expression", "setting": "IFN-β", "value": "around 20 μg/mL"}
    ]},
    {"molecule": "CC[C@H](C)[C@H](NC(=O)[C@H](CC(N)=O)NC(=O)[C@H](CCCCN)NC(=O)[C@H](C)NC(=O)[C@H](CCCCN)NC(=O)[C@H](CCCCN)NC(=O)COCCOCCNC(=O)COCCOCCNC(=O)CCCCCCCCCCCCCCC(=O)O)C(=O)N[C@H](C(=O)N[C@@H](CC(C)C)C(=O)N[C@@H](CC(C)C)C(=O)N[C@@H](CCCCN)C(=O)NCC(=O)N[C@@H](CC(C)C)C(=O)N[C@@H](CCC(=O)O)C(=O)N[C@H](C(=O)N[C@H](C(=O)N[C@@H](CC(N)=O)C(=O)N[C@@H](CC(=O)O)C(=O)N[C@@H](Cc1c[nH]c2ccccc12)C(=O)N[C@@H](Cc1c[nH]cn1)C(=O)N[C@@H](Cc1ccccc1)C(=O)N[C@H]1CSSC[C@@H](C(N)=O)NC(=O)[C@@H](CCCNC(=N)N)NC(=O)[C@H](CCCNC(=N)N)NC(=O)[C@@H](CCCCN)NC(=O)[C@H](CCCCN)NC(=O)[C@@H](CCCNC(=N)N)NC(=O)CNC(=O)[C@@H](CCCNC(=N)N)NC(=O)[C@H](CCCNC(=N)N)NC(=O)[C@@H](CCCNC(=N)N)NC1=O)[C@@H](C)CC)C(C)C)C(C)C", "note": "[Agent 1 T½ (min)] ({C16 diacid-AEEA-AEEA}-KKAKNIVLLKGLEVINDWHFC[dR]R[dR]G[dR]K[dK]R[dR]C-NH2; disulfide 21-31)", "values": [
      {"measurement": "Mouse (@ 5.0 µg/mL)", "setting": "FIG. 9", "value": 174, "unit": "min"},
      {"measurement": "NHP (@ 4.4 µg/mL)", "setting": "FIG. 9", "value": 172, "unit": "min"},
      {"measurement": "Rat (@ 5.0 µg/mL)", "setting": "FIG. 9", "value": 86, "unit": "min"}
    ]},
    {"molecule": "CC[C@H](C)[C@H](NC(=O)[C@H](CC(N)=O)NC(=O)[C@H](CCCCN)NC(=O)[C@H](C)NC(=O)[C@H](CCCCN)NC(=O)[C@@H](N)CCCCN)C(=O)N[C@H](C(=O)N[C@@H](CC(C)C)C(=O)N[C@@H](CC(C)C)C(=O)N[C@@H](CCCCN)C(=O)NCC(=O)N[C@@H](CC(C)C)C(=O)N[C@@H](CCC(=O)O)C(=O)N[C@H](C(=O)N[C@H](C(=O)N[C@@H](CC(N)=O)C(=O)N[C@@H](CC(=O)O)C(=O)N[C@@H](Cc1c[nH]c2ccccc12)C(=O)N[C@@H](Cc1c[nH]cn1)C(=O)N[C@@H](Cc1ccccc1)C(=O)N[C@H]1CSSC[C@@H](C(N)=O)NC(=O)[C@@H](CCCNC(=N)N)NC(=O)[C@H](CCCNC(=N)N)NC(=O)[C@@H](CCCCN)NC(=O)[C@H](CCCCN)NC(=O)[C@@H](CCCNC(=N)N)NC(=O)CNC(=O)[C@@H](CCCNC(=N)N)NC(=O)[C@H](CCCNC(=N)N)NC(=O)[C@@H](CCCNC(=N)N)NC1=O)[C@@H](C)CC)C(C)C)C(C)C", "note": "[Agent 3] (H-KKAKNIVLLKGLEVINDWHFC[dR]R[dR]G[dR]K[dK]R[dR]C-NH2; disulfide 21-31; N-terminus assumed)", "values": [
      {"measurement": "Response Index (RI)", "setting": "CD4+ T cells", "value": 0.306},
      {"measurement": "percentage antigenicity", "setting": "CD4+ T cells", "value": 22.73, "unit": "%"}
    ]},
    {"molecule": "KKYKNIVLLKGLEVINDYHFGRKKRRQRRRPQ-NH2 [Agent 2 T½ (min)]", "values": [
      {"measurement": "Mouse (@ 5.0 µg/mL)", "setting": "FIG. 9", "value": 4, "unit": "min"},
      {"measurement": "Rat (@ 5.0 µg/mL)", "setting": "FIG. 9", "value": 3, "unit": "min"}
    ]},
    {"molecule": "KKYKNIVLLKGLEVINDYHFGRKKRRQRRRPQ-NH2 [Agent 2, reference compound]", "values": [
      {"measurement": "Response Index (RI)", "setting": "CD4+ T cells", "value": 0.445},
      {"measurement": "percentage antigenicity", "setting": "CD4+ T cells", "value": 31.82, "unit": "%"}
    ]},
    {"molecule": "KKYKNIVLLKGLEVINDYHFGRKKRRQRRRPQ-NH2 [Agent 2]", "values": [
      {"measurement": "AUC0-inf", "setting": "FIG. 10A", "value": 373, "unit": "ng·h/mL"},
      {"measurement": "Clobs", "setting": "FIG. 10A", "value": 447, "unit": "mL/min/kg"},
      {"measurement": "C0", "setting": "FIG. 10A; mouse, in vivo, iv, 10 mg/kg", "value": 3910, "unit": "ng/mL"},
      {"measurement": "AUC0-inf (ng·h/mL)", "setting": "FIG. 10C", "value": "1,250 ng·h/mL"},
      {"measurement": "C0 (ng/mL)", "setting": "FIG. 10C", "value": "2,760 ng/mL"},
      {"measurement": "Clobs", "setting": "FIG. 10C", "value": 53.8, "unit": "mL/min/kg"},
      {"measurement": "AUC0-inf", "setting": "FIG. 10B", "value": 225, "unit": "ng·h/mL"},
      {"measurement": "Clobs", "setting": "FIG. 10B", "value": 742, "unit": "mL/min/kg"},
      {"measurement": "C0", "setting": "FIG. 10B; rat, in vivo, iv, 10 mg/kg", "value": 1730, "unit": "ng/mL"}
    ]}
  ]
}
